Source: patent publication US20170266213A1, “USE OF BETA-NICOTINAMIDE MONONUCLEOTIDE IN PREPARATION OF ANTI-AGING DRUGS OR HEALTH-CARE PRODUCTS” (BONTAC BIO-ENGINEERING (SHENZHEN) CO., LTD, priority 2015, published 2017)

Tested on: Kunming mice (aged about 52 weeks)
Test: Mouse survival test
Format: in vivo
Procedure: 1.1 Experimental material: β-nicotinamide mononucleotide (NMN)
1.2 Experimental animal: Kunming mice (aged about 52 weeks)
1.3 Administration method:
Blank group: fed on full diet;
Treatment group: fed on full diet supplemented with NMN (containing adjuvants) fully dissolved in water, where a single dose of NMN is 20 mg/Kg body weight/day;
Control group: fed on full diet supplemented with adjuvants equivalent to those in the Treatment group;
Mouse survival test: […] aged 52 weeks were assigned to two groups (that is, a blank control group and a treatment group) at random, each group having 40 animals.
Experimental method: see Function Evaluation procedures and Specification of test methods for health food—(2003 Edition, the Ministry of Health).

NC(=O)c1ccc[n+]([C@@H]2O[C@H](COP(=O)([O-])O)[C@@H](O)[C@H]2O)c1 [NMN, β-nicotinamide mononucleotide]
extension of the lifespan of mice (NMN 20 mg/Kg body weight/day, versus blank and control groups (Table 1)): about 29%
Morbility over 100 weeks (%) (aged 52 weeks at start, NMN 20 mg/Kg body weight/day in full diet, 100 weeks): 38%
Morbility over 120 weeks (%) (aged 52 weeks at start, NMN 20 mg/Kg body weight/day in full diet, 120 weeks): 52%
Morbility over 140 weeks (%) (aged 52 weeks at start, NMN 20 mg/Kg body weight/day in full diet, 140 weeks): 61%
Morbility over 160 weeks (%) (aged 52 weeks at start, NMN 20 mg/Kg body weight/day in full diet, 160 weeks): 74%
Morbility over 180 weeks (%) (aged 52 weeks at start, NMN 20 mg/Kg body weight/day in full diet, 180 weeks): 100%
effect on the lifespan of mice (in words) (composition containing NMN): obviously extend the lifespan of mice
